From patent US11046694B2, “Compounds and methods for treating bacterial infections” (Entasis Therapeutics, Inc., priority 2018, dated 2021)
Values after ≈ are worked out from the molar mass of the structure shown. Counter-ions that a name gives are not always drawn.

Key:
P. aeruginosa PBP3 = P. aeruginosa PBP3 (Pseudomonas aeruginosa, UniProt G3XD46); format: biochemical; settings: P. aeruginosa PBP3 60 nM, BOCILLIN FL 30 nM, pH 7.0
E. coli (ATCC25922) = test: MIC against E. coli; settings: Escherichia coli, ATCC25922, read-out: E. coli MIC (ATCC25922) (mg/L)
A. baumannii (ARC3495) = test: MIC against A. baumannii; settings: Acinetobacter baumannii, read-out: A. baumannii MIC (ARC3495) (mg/L)
[1] = tested on: K. pneumoniae (ATCC700603); test: MIC against K. pneumoniae; settings: Klebsiella pneumoniae, ATCC700603, read-out: K. pneumoniae MIC (ATCC700603)
P. aeruginosa WT (PAO1) = test: MIC, CLSI broth microdilution, P. aeruginosa; format: cell-based; settings: Pseudomonas aeruginosa, PAO1; CLSI broth microdilution; read-out: P. aeruginosa WT (PAO1) MIC
P. aeruginosa PBP1a = P. aeruginosa PBP1a (Pseudomonas aeruginosa, UniProt Q07806); format: biochemical; settings: P. aeruginosa PBP1a 60 nM, BOCILLIN FL 30 nM, pH 7.0
Sequence of P. aeruginosa PBP1a (Q07806 whole entry): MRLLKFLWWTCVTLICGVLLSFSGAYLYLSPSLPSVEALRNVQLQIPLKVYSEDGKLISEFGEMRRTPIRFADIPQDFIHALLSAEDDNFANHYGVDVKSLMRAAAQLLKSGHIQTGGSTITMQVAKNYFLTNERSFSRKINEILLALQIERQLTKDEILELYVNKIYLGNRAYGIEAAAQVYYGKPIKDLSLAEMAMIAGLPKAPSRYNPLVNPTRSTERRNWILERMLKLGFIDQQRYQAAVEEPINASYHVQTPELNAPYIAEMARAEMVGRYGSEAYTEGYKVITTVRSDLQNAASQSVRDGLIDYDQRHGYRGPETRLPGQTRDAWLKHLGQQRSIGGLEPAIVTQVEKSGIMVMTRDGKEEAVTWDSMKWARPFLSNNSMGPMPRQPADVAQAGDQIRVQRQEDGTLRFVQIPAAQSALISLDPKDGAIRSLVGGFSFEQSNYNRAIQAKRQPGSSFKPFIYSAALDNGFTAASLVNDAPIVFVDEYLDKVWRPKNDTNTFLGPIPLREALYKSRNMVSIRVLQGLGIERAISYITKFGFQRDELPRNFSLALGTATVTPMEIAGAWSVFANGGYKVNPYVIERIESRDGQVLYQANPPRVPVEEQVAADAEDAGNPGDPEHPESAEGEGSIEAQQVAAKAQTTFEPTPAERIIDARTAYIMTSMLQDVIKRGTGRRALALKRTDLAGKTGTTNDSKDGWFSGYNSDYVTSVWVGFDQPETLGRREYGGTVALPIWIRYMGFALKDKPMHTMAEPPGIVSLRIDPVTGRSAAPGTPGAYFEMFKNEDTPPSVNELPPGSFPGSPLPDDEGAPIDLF

Sequence of P. aeruginosa PBP3 (G3XD46 whole entry): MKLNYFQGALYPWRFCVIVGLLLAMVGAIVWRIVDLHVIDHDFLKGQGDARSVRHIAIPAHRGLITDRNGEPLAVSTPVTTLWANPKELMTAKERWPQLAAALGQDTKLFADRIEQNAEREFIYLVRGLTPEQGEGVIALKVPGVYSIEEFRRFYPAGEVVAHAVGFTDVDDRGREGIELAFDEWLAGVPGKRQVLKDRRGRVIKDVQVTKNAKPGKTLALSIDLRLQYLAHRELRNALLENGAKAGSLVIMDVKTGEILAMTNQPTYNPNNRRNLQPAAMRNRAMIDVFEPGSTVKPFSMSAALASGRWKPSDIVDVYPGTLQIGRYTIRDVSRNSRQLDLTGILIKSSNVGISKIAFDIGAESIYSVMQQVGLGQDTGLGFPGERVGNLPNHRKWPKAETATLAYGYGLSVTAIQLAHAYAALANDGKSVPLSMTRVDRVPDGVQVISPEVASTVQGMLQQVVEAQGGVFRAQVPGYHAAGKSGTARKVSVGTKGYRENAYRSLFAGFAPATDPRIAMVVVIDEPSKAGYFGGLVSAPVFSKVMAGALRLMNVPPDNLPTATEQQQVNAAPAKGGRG

Row | SMILES | PBP3 acylation rate, k(on) (M^−1 · s^−1) (P. aeruginosa PBP3) | MIC (E. coli (ATCC25922)) | MIC (A. baumannii (ARC3495)) | MIC [1] | MIC (P. aeruginosa WT (PAO1)) | PBP1a acylation rate, k(on) (M^−1 · s^−1) (P. aeruginosa PBP1a)
1 | CN/C(=N\OC(=O)NCCCN)[C@@H]1c2c(cnn2C)[C@@H]2CN1C(=O)N2OS(=O)(=O)O (racemic) [Example 25] | *** (*** represents a k(on) > 10,000 M^−1 · s^−1) | 8 to 16 mg/L (≈ 17.9 to 35.8 µM) | 8 to 16 mg/L (≈ 17.9 to 35.8 µM) | > 16 µg/mL | < 8 µg/mL | ** (** represents a k(on) of 100 to 10,000 M^−1 · s^−1)
2 | CN/C(=N\OC(=O)NC1CNC1)[C@@H]1c2c(cnn2C)[C@@H]2CN1C(=O)N2OS(=O)(=O)O (racemic) [Example 26] | *** (*** represents a k(on) > 10,000 M^−1 · s^−1) | < 8 mg/L | < 8 mg/L | < 8 µg/mL | < 8 µg/mL | ** (** represents a k(on) of 100 to 10,000 M^−1 · s^−1)
3 | CN/C(=N\OC(=O)NCCC(=O)O)[C@@H]1c2c(cnn2C)[C@@H]2CN1C(=O)N2OS(=O)(=O)O (racemic) [Example 27] | *** (*** represents a k(on) > 10,000 M^−1 · s^−1) | < 8 mg/L | > 16 mg/L | > 16 µg/mL | 8 to 16 µg/mL (≈ 17.3 to 34.7 µM) | ** (** represents a k(on) of 100 to 10,000 M^−1 · s^−1)
4 | CN/C(=N\OC(=O)NCC1CCNCC1)[C@@H]1c2c(cnn2C)[C@@H]2CN1C(=O)N2OS(=O)(=O)O (racemic) [Example 28] | *** (*** represents a k(on) > 10,000 M^−1 · s^−1) | < 8 mg/L | 8 to 16 mg/L (≈ 16.4 to 32.9 µM) | > 16 µg/mL | < 8 µg/mL | ** (** represents a k(on) of 100 to 10,000 M^−1 · s^−1)
5 | CN/C(=N\OC(=O)NC1CCNCC1)[C@@H]1c2c(cnn2C)[C@@H]2CN1C(=O)N2OS(=O)(=O)O (racemic) [Example 29] | *** (*** represents a k(on) > 10,000 M^−1 · s^−1) | 8 to 16 mg/L (≈ 16.9 to 33.9 µM) | 8 to 16 mg/L (≈ 16.9 to 33.9 µM) | > 16 µg/mL | < 8 µg/mL | ** (** represents a k(on) of 100 to 10,000 M^−1 · s^−1)
6 | CN/C(=N\OC(=O)N[C@H]1CC[C@H](N)CC1)[C@@H]1c2c(cnn2C)[C@@H]2CN1C(=O)N2OS(=O)(=O)O (racemic) [Example 30] | *** (*** represents a k(on) > 10,000 M^−1 · s^−1) | 8 to 16 mg/L (≈ 16.4 to 32.9 µM) | 8 to 16 mg/L (≈ 16.4 to 32.9 µM) | > 16 µg/mL | < 8 µg/mL | ** (** represents a k(on) of 100 to 10,000 M^−1 · s^−1)
7 | CN/C(=N\OC(=O)NCCCC[C@H](N)C(=O)O)[C@@H]1c2c(cnn2C)[C@@H]2CN1C(=O)N2OS(=O)(=O)O (racemic) [Example 31] | *** (*** represents a k(on) > 10,000 M^−1 · s^−1) | < 8 mg/L | > 16 mg/L | > 16 µg/mL | 8 to 16 µg/mL (≈ 15.4 to 30.9 µM) | ** (** represents a k(on) of 100 to 10,000 M^−1 · s^−1)
8 | CN/C(=N\OC(=O)NCCCC[C@H](N)C(=O)OC(C)(C)C)[C@@H]1c2c(cnn2C)[C@@H]2CN1C(=O)N2OS(=O)(=O)O (racemic) [Example 32] | *** (*** represents a k(on) > 10,000 M^−1 · s^−1) | < 8 mg/L | > 16 mg/L | > 16 µg/mL | > 16 µg/mL | ** (** represents a k(on) of 100 to 10,000 M^−1 · s^−1)
9 | CN/C(=N\OC(=O)NOC)[C@@H]1c2c(cnn2C)[C@@H]2CN1C(=O)N2OS(=O)(=O)O (racemic) [Example 33] | *** (*** represents a k(on) > 10,000 M^−1 · s^−1) | 8 to 16 mg/L (≈ 19.1 to 38.2 µM) | 8 to 16 mg/L (≈ 19.1 to 38.2 µM) | > 16 µg/mL | 8 to 16 µg/mL (≈ 19.1 to 38.2 µM) | ** (** represents a k(on) of 100 to 10,000 M^−1 · s^−1)
10 | CN/C(=N\OC(=O)NC(C)(C)C(=O)O)[C@@H]1c2c(cnn2C)[C@@H]2CN1C(=O)N2OS(=O)(=O)O (racemic) [Example 34] | *** (*** represents a k(on) > 10,000 M^−1 · s^−1) | 8 to 16 mg/L (≈ 16.8 to 33.7 µM) | > 16 mg/L | > 16 µg/mL | 8 to 16 µg/mL (≈ 16.8 to 33.7 µM) | ** (** represents a k(on) of 100 to 10,000 M^−1 · s^−1)
11 | CN/C(=N\O)[C@@H]1c2c(cnn2C/C=N/OCCN)[C@@H]2CN1C(=O)N2OS(=O)(=O)O (racemic) [Example 49, 1-((E)-2-((2-aminoethoxy)imino)ethyl)-8-((Z)—N′-hydroxy-N-methylcarbamimidoyl)-6-oxo-4,8-dihydro-1H-4,7-methanopyrazolo[3,4-e][1,3]diazepin-5(6H)-yl hydrogen sulfate] | *** (*** represents a k(on) > 10,000 M^−1 · s^−1) | 8 to 16 mg/L | 8 to 16 mg/L | 8 to 16 µg/mL | < 8 µg/mL | * (* represents a k(on) < 100 M^−1 · s^−1)
